# Assay: recombinant barcode read abundance after kanamycin selection (control-corrected) (log10(CPM+1)); higher = more efficient recombination; sequences stand for … in AGTGCAGAGAAAATCGGCCAGTTTTCTCTGCCTGCAGTCCGCATGCCGT…AGATTTATGCAGCGGACTGCCTTTCTCCCAAAGTGATAAACCGGACAGTATCATGGACCGGTTTTCCCGGTAATCCGTATTTGCAAGGTTGGTTTCACT; site = the 11-nt target
# Method in brief: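 For this pooled screen, each oligo contained a promoter, a target, a barcode and the J23119-driven first 104 bases of the bridge RNA. Gibson cloning placed it into a vector supplying the remaining 73 bp and a T7-inducible recombinase, and the pool was co-electroporated into E. coli with a donor plasmid. Recombination efficiency is derived from barcode counts per million at recombinant junctions after averaging and control correction, and is expressed on a log scale as log10(CPM+1), with selection on chloramphenicol/ampicillin/kanamycin plus 0.1 mM IPTG against a chloramphenicol/ampicillin LB agar control.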
# 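Note: IS621 recombinase and bridge RNA in Escherichia coli cells.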
row,Sequence,recombinant barcode read abundance (log10)
1,CGGGAAGCTTGGGTTCTAACCTGTTGCCT (site CGGGAAGCTAG),1.61
2,CGGGAAGCTTGGGTTCTAACCTGTTGCCT (site CGGGGAGCTCG),0.287
3,CGGGACCCTTGGGTTCTAACCTGTTGCCT (site CGGGACCCTAG),1.26
4,CGGGACCCTTGGGTTCTAACCTGTTGCCT (site CGTGACCCTAA),0.634
5,CGGGCAGCTTGGGTTCTAACCTGTTGCCT (site CGAGCAGCTAG),0.0303
6,CGGGCAGCTTGGGTTCTAACCTGTTGCCT (site CGCGCAGCTAG),0.0844
7,CGGGCAGCTTGGGTTCTAACCTGTTGCCT (site CGGGCAGCTAG),0.0664
8,CGGGCAGCTTGGGTTCTAACCTGTTGCCT (site CGTGCAGCTAG),0.156
9,CGGGCCACTTGGGTTCTAACCTGTTGCGT (site CGGCCCACTCC),0.175
10,CGGGCCACTTGGGTTCTAACCTGTTGCGT (site CGGGCCACTAC),2.99
11,CGGGCGTCTTGGGTTCTAACCTGTTGCTT (site CGGACGTCTCA),0.148
12,CGGGCGTCTTGGGTTCTAACCTGTTGCTT (site CGGGCGTCTAA),1.46
13,CGGTCCTCTTGGGTTCTAACCTGTTGCGC (site CGGGCCTCTGT),0.0542
14,CGGTCCTCTTGGGTTCTAACCTGTTGCGC (site CGGTCCTCTGC),2.63
15,CGGTCTACTTGGGTTCTAACCTGTTGCCT (site CAGTCTACTAG),0.0894
16,CGGTCTACTTGGGTTCTAACCTGTTGCCT (site CCGTCTACTAG),0.264
17,CGGTCTACTTGGGTTCTAACCTGTTGCCT (site CGGTCTACTAG),0.219
18,CGGTCTACTTGGGTTCTAACCTGTTGCCT (site CTGTCTACTAG),0.0592
19,CGGTCTGCTTGGGTTCTAACCTGTTGCAT (site CGGTCTGCTAT),0.826
20,CGGTCTGCTTGGGTTCTAACCTGTTGCAT (site GCTAGGACTCA),0.217
21,CGGTGTCCTTGGGTTCTAACCTGTTGCTT (site AGGTGTCCTAA),0.0515
22,CGGTGTCCTTGGGTTCTAACCTGTTGCTT (site CGGTGTCCTAA),1.21

row,Sequence,recombinant barcode read abundance (log10)
1,CGGTTGCCTTGGGTTCTAACCTGTTGCGT (site CGGTCGCCTAT),0.318
2,CGGTTGCCTTGGGTTCTAACCTGTTGCGT (site CGGTTGCCTAC),2.48
3,CGTAATGCTTGGGTTCTAACCTGTTGCCT (site CGAAATGCTAG),0.178
4,CGTAATGCTTGGGTTCTAACCTGTTGCCT (site CGCAATGCTAG),0.234
5,CGTAATGCTTGGGTTCTAACCTGTTGCCT (site CGGAATGCTAG),0.0453
6,CGTAATGCTTGGGTTCTAACCTGTTGCCT (site CGTAATGCTAG),0.0999
7,CGTAGACCTTGGGTTCTAACCTGTTGCTA (site CGTAGACCTTA),0.216
8,CGTAGACCTTGGGTTCTAACCTGTTGCTA (site TTATCCGCTAG),0.0216
9,CGTAGGACTTGGGTTCTAACCTGTTGCCT (site AGTAGGACTAG),0.0846
10,CGTAGGACTTGGGTTCTAACCTGTTGCCT (site CGTAGGACTAG),0.209
11,CGTAGGACTTGGGTTCTAACCTGTTGCCT (site GGTAGGACTAG),0.0902
12,CGTAGGACTTGGGTTCTAACCTGTTGCCT (site TGTAGGACTAG),0.0115
13,CGTATGTCTTGGGTTCTAACCTGTTGCCT (site AGTATGTCTAG),0.0814
14,CGTATGTCTTGGGTTCTAACCTGTTGCCT (site CGTATGTCTAG),0.684
15,CGTATGTCTTGGGTTCTAACCTGTTGCCT (site GGTATGTCTAG),0.0736
16,CGTATGTCTTGGGTTCTAACCTGTTGCCT (site TGTATGTCTAG),0.189
17,CGTCAACCTTGGGTTCTAACCTGTTGCGT (site CGTAAACCTAC),0.186
18,CGTCAACCTTGGGTTCTAACCTGTTGCGT (site CGTCAACCTAC),0.205
19,CGTCAACCTTGGGTTCTAACCTGTTGCGT (site CGTGAACCTAC),0.0619
20,CGTCAACCTTGGGTTCTAACCTGTTGCGT (site CGTTAACCTAC),0.242
21,CGTCATCCTTGGGTTCTAACCTGTTGCCT (site CGTCAACCTAG),0.0954
22,CGTCATCCTTGGGTTCTAACCTGTTGCCT (site CGTCACCCTAG),0.0927

row,Sequence,recombinant barcode read abundance (log10)
1,CGTCATCCTTGGGTTCTAACCTGTTGCCT (site CGTCAGCCTAG),0.112
2,CGTCATCCTTGGGTTCTAACCTGTTGCCT (site CGTCATCCTAG),0.0294
3,CGTCCACCTTGGGTTCTAACCTGTTGCCT (site AGTCCACCTAG),0.198
4,CGTCCACCTTGGGTTCTAACCTGTTGCCT (site CGTCCACCTAG),0.0544
5,CGTCCACCTTGGGTTCTAACCTGTTGCCT (site GGTCCACCTAG),0.1
6,CGTCCACCTTGGGTTCTAACCTGTTGCCT (site TGTCCACCTAG),0.245
7,CGTCCTGCTTGGGTTCTAACCTGTTGCCT (site AGTCCTGCTAG),0
8,CGTCCTGCTTGGGTTCTAACCTGTTGCCT (site CGTCCTGCTAG),0.488
9,CGTCCTGCTTGGGTTCTAACCTGTTGCCT (site GGTCCTGCTAG),0
10,CGTCCTGCTTGGGTTCTAACCTGTTGCCT (site TGTCCTGCTAG),0.0535
11,CGTCCTTCTTGGGTTCTAACCTGTTGCCT (site AGTCCTTCTAT),0.351
12,CGTCCTTCTTGGGTTCTAACCTGTTGCCT (site CGTCCTTCTAG),0.0421
13,CGTCGACCTTGGGTTCTAACCTGTTGCCT (site AGTCGACCTAG),0.092
14,CGTCGACCTTGGGTTCTAACCTGTTGCCT (site CGTCGACCTAG),0.0617
15,CGTCGACCTTGGGTTCTAACCTGTTGCCT (site GGTCGACCTAG),0.227
16,CGTCGACCTTGGGTTCTAACCTGTTGCCT (site TGTCGACCTAG),0.194
17,CGTCTGACTTGGGTTCTAACCTGTTGCCA (site CGACTGACTAG),0.158
18,CGTCTGACTTGGGTTCTAACCTGTTGCCA (site CGTCTGACTTG),0.241
19,CGTGAAGCTTGGGTTCTAACCTGTTGCCT (site CGTATAGCTAG),0.183
20,CGTGAAGCTTGGGTTCTAACCTGTTGCCT (site CGTGAAGCTAG),0.795
21,CGTGCGACTTGGGTTCTAACCTGTTGCAT (site CGTACGACTAT),0.0517
22,CGTGCGACTTGGGTTCTAACCTGTTGCAT (site CGTCCGACTAT),0.0641

row,Sequence,recombinant barcode read abundance (log10)
1,CGTGCGACTTGGGTTCTAACCTGTTGCAT (site CGTGCGACTAT),0.109
2,CGTGCGACTTGGGTTCTAACCTGTTGCAT (site CGTTCGACTAT),0.174
3,CGTGGGGCTTGGGTTCTAACCTGTTGCCT (site CGTATGGCTAG),0.075
4,CGTGGGGCTTGGGTTCTAACCTGTTGCCT (site CGTGGGGCTAG),0.156
5,CGTTCTCCTTGGGTTCTAACCTGTTGCTA (site CGTTCTCCTTA),0.637
6,CGTTCTCCTTGGGTTCTAACCTGTTGCTA (site GCAAGGTCTAT),0.0644
7,CTAAAGCCTTGGGTTCTAACCTGTTGCCT (site CTAAAGCCTAG),1.25
8,CTAAAGCCTTGGGTTCTAACCTGTTGCCT (site CTAAGGCCTAG),0.2
9,CTAAATACTTGGGTTCTAACCTGTTGCCG (site CTAAATACTCG),0.154
10,CTAAATACTTGGGTTCTAACCTGTTGCCG (site CTAAGCACTCG),0.188
11,CTAAATCCTTGGGTTCTAACCTGTTGCAT (site CTAAATCCTAT),0.963
12,CTAAATCCTTGGGTTCTAACCTGTTGCAT (site CTAACTCCTAT),0.0807
13,CTAAATCCTTGGGTTCTAACCTGTTGCAT (site CTAAGTCCTAT),0.0712
14,CTAAATCCTTGGGTTCTAACCTGTTGCAT (site CTAATTCCTAT),0.232
15,CTAACCTCTTGGGTTCTAACCTGTTGCTA (site CTAACCTCTAA),0.0338
16,CTAACCTCTTGGGTTCTAACCTGTTGCTA (site CTAACCTCTCA),0.0433
17,CTAACCTCTTGGGTTCTAACCTGTTGCTA (site CTAACCTCTGA),1.01
18,CTAACCTCTTGGGTTCTAACCTGTTGCTA (site CTAACCTCTTA),1.42
19,CTAACGACTTGGGTTCTAACCTGTTGCGG (site CTAACGACTCC),2.47
20,CTAACGACTTGGGTTCTAACCTGTTGCGG (site CTAGCGACTCC),0.158

# From the supplement of paper PMC11208160
